Source: paper PMC11643720, “Addressing the Evolution of Cardenolide Formation in Iridoid-Synthesizing Plants: Site-Directed Mutagenesis of PRISEs (Progesterone-5β-Reductase/Iridoid Synthase-like Enzymes) of Plantago Species” (Molecules, 2024)
Read-outs that look alike come from different tables or passages of the source.

How the values were obtained:
[1] = tested on: T1, rPlP5βR1 (PlP5βR1, PlP5βR); assay: NADPH oxidation at […] nm, Michaelis-Menten; assay type: biochemical, Plantago lanceolata; conditions: 0.2 mM NADPH, phosphate buffer pH 8.0, 40 °C, SD < 25%, read-out: rPlP5βR1 / L156F
T1 construct: gene P5βR1; full-length CDS 1170 bp, 389 aa; pDEST17, N-terminal 6xHis tag, E. coli SoluBL21 (mutants BL21(DE3)), Ni-NTA; printed WKF numbers of the two species may be swapped; wild type has L156 and L346 (abstract misprints A156, F346)

[2] = tested on: T1, rPlP5βR1 (PlP5βR1, PlP5βR); assay: NADPH oxidation at […] nm, Michaelis-Menten; assay type: biochemical, Plantago lanceolata; conditions: 0.2 mM NADPH, phosphate buffer pH 8.0, 40 °C; SD < 25%
[3] = tested on: T2, rPmdP5βR1 (PmdP5βR1, PmdP5βR); assay: NADPH oxidation at […] nm, Michaelis-Menten; assay type: biochemical, Plantago media; conditions: 0.2 mM NADPH, phosphate buffer pH 8.0, 40 °C, SD < 25%
T2 construct: gene P5βR1; full-length CDS 1170 bp, 389 aa; pDEST17, N-terminal 6xHis tag, E. coli SoluBL21 (mutants BL21(DE3)), Ni-NTA; printed WKF numbers of the two species may be swapped; wild type has F156 and A346

[4] = tested on: T2, rPmdP5βR1 (PmdP5βR1, PmdP5βR); assay: NADPH oxidation at […] nm, Michaelis-Menten; assay type: biochemical, Plantago media; conditions: 0.2 mM NADPH, phosphate buffer pH 8.0, 40 °C, SD < 25%, read-out: rPmdP5βR1 / DMT
[5] = tested on: T1, rPlP5βR1 (PlP5βR1, PlP5βR); assay: NADPH oxidation at […] nm, Michaelis-Menten; assay type: biochemical, Plantago lanceolata; conditions: 0.2 mM NADPH, phosphate buffer pH 8.0, 40 °C, SD < 25%, read-out: rPlP5βR1 / DMT
[6] = tested on: T3, rPmdP5βR1 (PmdP5βR1, PmdP5βR); conditions: read-out: rPmdP5βR1 / F156L; 0.2 mM NADPH, phosphate buffer pH 8.0, 40 °C, DMSO added at 0.4-0.6 mM progesterone; SD < 25%
T3 construct: gene P5βR1

[7] = tested on: T4, rPlP5βR1 (PlP5βR1, PlP5βR); conditions: read-out: rPlP5βR1 / L346A; 0.2 mM NADPH, phosphate buffer pH 8.0, 40 °C, DMSO added at 0.4-0.6 mM progesterone; SD < 25%
T4 construct: gene P5βR1

[8] = tested on: T3, rPmdP5βR1 (PmdP5βR1, PmdP5βR); conditions: read-out: rPmdP5βR1 / A346L; 0.2 mM NADPH, phosphate buffer pH 8.0, 40 °C, DMSO added at 0.4-0.6 mM progesterone; SD < 25%
[9] = DMSO added at 0.4-0.6 mM progesterone

Structure (SMILES) | Km [1] | Km [2] | Km [3] | Km [4] | Km [5] | Km [4, 9] | Km [1, 9] | Km [5, 9] | Km [6] | Km [7] | Km [3, 9] | Km [8]
O=C1C=CCCC1 [2-cyclohexen-1-one] | 16 µM | 66 µM | 46 µM | – | – | – | – | – | – | – | – | –
C/C(C=O)=C\CC/C(C)=C/C=O [8-oxogeranial] | – | 100 µM | 19 µM | 7 µM | 10 µM | – | – | – | – | – | – | –
C=CC(C)=O [methyl vinyl ketone] | – | 100 µM | 33 µM | – | 216 µM | – | – | – | – | – | – | –
CC(=O)[C@H]1CC[C@H]2[C@@H]3CCC4=CC(=O)CC[C@]4(C)[C@H]3CC[C@]12C [progesterone] | – | – | – | – | – | 587 µM | 451 µM | 44 µM | 128 µM | 170 µM | 67 µM | 218 µM
